This is an account of results in patent US20040077624A1, “Novel combination” (Pfizer Inc., priority 2002, published 2004).

This assay relates to spontaneously hypertensive rat (SHR). Description: Animal study: haemodynamic parameters in spontaneously hypertensive rats under continuous infusion. The format is in vivo. The following applies: male SHR; continuous infusion 0.4 mL/h over 4 days; enalapril 7.5 μg/mL, PDE5 inhibitor 200 μg/mL; difference from the vehicle response. The procedure:
The spontaneously hypertensive rat (SHR) is a widely used model of human hypertension. Male SHRs (20-22 weeks old) were instrumented with Doppler flow probes for the measurement of mesenteric, hindquarters and renal blood flow, aortic blood pressure and heart rate according to published methods (Gardiner, S M et al.; Br. J. Pharmacol. 132(8), 1625-1629, 2001).
Solutions of enalapril (7.5 μg/mL), PDE5 inhibitor (200μg/mL) and a combination of enalapril and PDE5 inhibitor (7.5μg/mL+200 μg/mL) were infused at a rate of 0.4 mL/h throughout the experimental period. Control animals received compound vehicle; isotonic saline adjusted to pH 4 with hydrochloric acid.
Baseline haemodynamic parameters were recorded. Animals (n=7 or 8/group) were randomised then treated with the drug solution by continuous infusion over 4 days. Changes in haemodynamic parameters were monitored during the study period for 7h on each day.

For the compound `CCc1c2nc(-c3cc(S(=O)(=O)N4CCN(CC)CC4)cnc3OCCOC)[nH]c(=O)c2nn1Cc1ccccn1` [PDE5 inhibitor, 3-ethyl-5-[5-(4-ethylpiperazin-1-ylsulphonyl)-2-(2-methoxyethoxy)pyridin-3-yl]-2-(pyridin-2-yl)methyl-2,6-dihydro-7H-pyrazolo[4,3-d]pyrimidin-7-one], the “Change in aortic conductance” value was “+19.8%”, the “Change in mesenteric conductance” value is listed as “+22.1%”, the “Change in renal conductance” value was −0.8% and the “Overall change in mean BP” value is listed as −12.1 mmHg.
Take `CCOC(=O)[C@H](CCc1ccccc1)N[C@@H](C)C(=O)N1CCC[C@H]1C(=O)O` [Enalapril, enalapril]: the “Change in aortic conductance” value was “+3.7%”, the “Change in mesenteric conductance” value is “+22.4%”, the “Change in renal conductance” value is “+14.2%” and the “Overall change in mean BP” value was −2.4 mmHg.
